Results: patent US20260200928A1, “THERAPEUTIC COMPOUNDS” (Sanofi, priority 2022, published 2026)

Biological target: T1, human IL-17A (Homo sapiens, UniProt Q16552)
T1 construct: purchased R&D Systems 7955-IL/CF
T1 sequence (Q16552 24-155): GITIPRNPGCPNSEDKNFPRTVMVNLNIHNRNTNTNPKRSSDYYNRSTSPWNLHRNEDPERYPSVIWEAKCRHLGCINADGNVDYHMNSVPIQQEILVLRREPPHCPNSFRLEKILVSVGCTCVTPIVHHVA
Test: IL-17A AlphaLISA competition assay (block of IL-17A binding to its receptor IL-17RA)
Details: mean IC50 (n≥2), block of IL-17A binding to IL-17RA
Method in brief: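 Human recombinant IL-17A (7.5 nM stock) pre-incubated 30 min at RT with compound, then IL-17RA/Fc (5 nM stock) added for 90 min; AlphaLISA read with anti-Fc acceptor beads, biotinylated anti-IL-17A antibody (5 nM) and streptavidin donor beads (3 h, dark). IC50 from 4-parameter logistic fit, normalised to DMSO and 4 μM reference inhibitor; n≥2.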

Point of comparison: COCC(c1ccnc(NC(=O)[C@@H](NC(=O)Cc2cc(C)[nH]n2)[C@H]2CC[C@H](C)CC2)c1)N1C[C@@H](C(F)(F)F)NC1=O (single isomer, unassigned) [Example 114], IC50 82 nM. Against it:
- O=C(N[C@H](C(=O)Nc1cc(CN2C[C@@H](C(F)(F)F)NC2=O)ccn1)C1CCC(F)(F)CC1)c1ccnn1C1CC1 [Example 14, 1-cyclopropyl-N-((S)-1-(4,4-difluorocyclohexyl)-2-oxo-2-((4-(((S)-2-oxo-4-(trifluoromethyl)imidazolidin-1-yl)methyl)pyridin-2-yl)amino)ethyl)-1H-pyrazole-5-carboxamide] — 4.1-fold higher, 333 nM
- COC[C@H](c1ccnc(NC(=O)[C@@H](NC(=O)c2nocc2C)C2CCC(F)(F)CC2)c1)N1C[C@@H](C(F)(F)F)NC1=O [Example 196, N-((S)-1-(4,4-difluorocyclohexyl)-2-((4-((S)-2-methoxy-1-((S)-2-oxo-4-(trifluoromethyl)imidazolidin-1-yl)ethyl)pyridin-2-yl)amino)-2-oxoethyl)-4-methylisoxazole-3-carboxamide] — 2.1-fold lower, 39 nM
- CC(C)n1nccc1C(=O)N[C@H](C(=O)Nc1cc(C(NC(=O)CC(F)(F)F)C2CC2)ccn1)C1CCC(F)(F)CC1 (stereo partly drawn) [Example 160, N-((1S)-2-((4-(cyclopropyl(3,3,3-trifluoropropanamido)methyl)pyridin-2-yl)amino)-1-(4,4-difluorocyclohexyl)-2-oxoethyl)-1-isopropyl-1H-pyrazole-5-carboxamide] — 2.2-fold higher, 183 nM
- C[C@H]1CC[C@H]([C@H](NC(=O)NCc2ccccc2)C(=O)Nc2cc(CN3C[C@@H](C(F)(F)F)NC3=O)ccn2)CC1 [Example 97, (S)-2-(3-Benzylureido)-2-((1r,4S)-4-methylcyclohexyl)-N-(4-(((S)-2-oxo-4-(trifluoromethyl)imidazolidin-1-yl)methyl)pyridin-2-yl)acetamide] — 25-fold higher, 2080 nM
- CCc1nocc1C(=O)NC(C(=O)Nc1cc(CC2=C[C@@H](C(F)(F)F)NC2=O)ccn1)C1CCC(F)(F)CC1 (stereo in doubt) [Example 216, N-((1S)-1-(4,4-difluorocyclohexyl)-2-oxo-2-((4-((2-oxo-5-(trifluoromethyl)-2,5-dihydro-1H-pyrrol-3-yl)methyl)pyridin-2-yl)amino)ethyl)-3-ethylisoxazole-4-carboxamide] — 1.7-fold higher, 137 nM
- Cn1nccc1C(=O)N[C@H](C(=O)Nc1cc(C(NC(=O)CCC(F)(F)F)C2CC2)ccn1)C(C1CC1)C1CC1 (single isomer, unassigned) [Example 42] — 6.4-fold higher, 524 nM
- COC[C@H](c1ccnc(NC(=O)[C@@H](NC(=O)c2ccnn2C(C)C)C(C2CC2)C2CC2)c1)N1C[C@@H](C(F)(F)F)NC1=O [Example 229, N-((S)-1,1-dicyclopropyl-3-((4-((S)-2-methoxy-1-((S)-2-oxo-4-(trifluoromethyl)imidazolidin-1-yl)ethyl)pyridin-2-yl)amino)-3-oxopropan-2-yl)-1-isopropyl-1H-pyrazole-5-carboxamide] — within 1.5-fold, 86 nM
- Cn1nccc1C(=O)N[C@H](C(=O)Nc1cc(CN2C[C@@H](C(F)(F)F)NC2=O)c(F)cn1)[C@H]1CC[C@H](C)CC1 [Example 64, N-((S)-2-((5-fluoro-4-(((S)-2-oxo-4-(trifluoromethyl)-imidazolidin-1-yl)methyl)-pyridin-2-yl)amino)-1-((1r,4S)-4-methylcyclo-hexyl)-2-oxoethyl)-1-methyl-1H-pyrazole-5-carboxamide] — 15-fold higher, 1230 nM
- Cn1nccc1C(=O)N[C@H](C(=O)Nc1cc(CNC(=O)CCC(F)(F)F)ccn1)C(C1CC1)C1CC1 [Example 32, (S)—N-(1,1-dicyclopropyl-3-oxo-3-((4-((4,4,4-trifluorobutanamido)-methyl)pyridin-2-yl)amino)propan-2-yl)-1-methyl-1H-pyrazole-5-carboxamide] — 68-fold higher, 5600 nM
- COC[C@H](c1ccnc(NC(=O)C(NC(=O)c2nonc2OCC(F)(F)F)C2CCC(F)CC2)c1)N1C[C@@H](C(F)(F)F)NC1=O (single isomer, unassigned) [Example 282] — within 1.5-fold, 103 nM
- CCc1nonc1C(=O)N[C@@H](COC(C)(C)C(F)(F)F)C(=O)Nc1cc([C@@H](COC)N2C[C@@H](C(F)(F)F)NC2=O)ccn1 [Example 266, 4-ethyl-N-((S)-1-((4-((S)-2-methoxy-1-((S)-2-oxo-4-(trifluoromethyl)imidazolidin-1-yl)ethyl)pyridin-2-yl)amino)-1-oxo-3-((1,1,1-trifluoro-2-methylpropan-2-yl)oxy)propan-2-yl)-1,2,5-oxadiazole-3-carboxamide] — 5.5-fold lower, 15 nM
- COCC(c1ccnc(NC(=O)[C@@H](NC(=O)c2ncccc2C)[C@H]2CC[C@H](C)CC2)c1)N1C[C@@H](C(F)(F)F)NC1=O (stereo partly drawn) [Example 98, N-((1S)-2-((4-(2-Methoxy-1-((S)-2-oxo-4-(trifluoromethyl)imidazolidin-1-yl)ethyl)pyridin-2-yl)amino)-1-((1r,4S)-4-methylcyclohexyl)-2-oxoethyl)-3-methyl-picolinamide] — 24-fold higher, 1960 nM
- CC(C)c1nocc1C(=O)N[C@H](C(=O)Nc1cc(CN2C[C@@H](C(F)(F)F)NC2=O)ccn1)C1CCC(F)(F)CC1 [Example 21, N-((S)-1-(4,4-difluorocyclohexyl)-2-oxo-2-((4-(((S)-2-oxo-4-(trifluoro-methyl)imidazolidin-1-yl)methyl)pyridin-2-yl)amino)ethyl)-3-isopropyl-isoxazole-4-carboxamide] — 1.7-fold higher, 138 nM
- Cc1nonc1COC(=O)N[C@H](C(=O)Nc1cc(CN2C[C@@H](C(F)(F)F)NC2=O)ccn1)C1CCC(F)(F)CC1 [Example 70, (4-Methyl-1,2,5-oxadiazol-3-yl)methyl ((S)-1-(4,4-difluorocyclohexyl)-2-oxo-2-((4-(((S)-2-oxo-4-(trifluoromethyl)imidazolidin-1-yl)methyl)pyridin-2-yl)amino)ethyl)carbamate] — 98-fold higher, 8000 nM
- COCC(c1ccnc(NC(=O)C(NC(=O)C(F)(F)c2cnccn2)C2CCC(C)CC2)c1)N1CC(C(F)(F)F)NC1=O (single isomer, unassigned) [Example 251] — 2.5-fold lower, 33 nM
- C[C@@H](OC(C)(C)C)[C@H](NC(=O)OCc1ccccc1)C(=O)Nc1cc(CN2C[C@@H](C(F)(F)F)NC2=O)ccn1 [Example 101, benzyl ((2S,3R)-3-(tert-butoxy)-1-oxo-1-((4-(((S)-2-oxo-4-(trifluoromethyl)imidazolidin-1-yl)methyl)pyridin-2-yl)amino)butan-2-yl)carbamate] — 66-fold higher, 5390 nM
- Cn1ccnc1C(=O)N[C@H](C(=O)Nc1cc(C(NC(=O)CCC(F)(F)F)C2CC2)ccn1)C1CCC(F)(F)CC1 (stereo partly drawn) [Example 111, N-((1S)-2-((4-(cyclopropyl(4,4,4-trifluorobutanamido)methyl)pyridin-2-yl)amino)-1-(4,4-difluorocyclohexyl)-2-oxoethyl)-1-methyl-1H-imidazole-2-carboxamide] — 75-fold higher, 6170 nM
- CC[C@H](c1ccnc(NC(=O)[C@@H](NC(=O)c2ccnn2CC)C2CCC(F)(F)CC2)c1)N1C[C@@H](C(F)(F)F)NC1=O [Example 213, N-((S)-1-(4,4-difluorocyclohexyl)-2-oxo-2-((4-((R)-1-((S)-2-oxo-4-(trifluoromethyl)imidazolidin-1-yl)propyl)pyridin-2-yl)amino)ethyl)-1-ethyl-1H-pyrazole-5-carboxamide] — 2.9-fold lower, 28 nM
- COC[C@H](c1ccnc(NC(=O)[C@@H](NC(=O)Cc2ccc(OC)nc2)C2CCC(F)(F)CC2)c1)N1C[C@@H](C(F)(F)F)NC1=O [Example 204, (S)-2-(4,4-difluorocyclohexyl)-N-(4-((S)-2-methoxy-1-((S)-2-oxo-4-(trifluoromethyl)imidazolidin-1-yl)ethyl)pyridin-2-yl)-2-(2-(6-methoxypyridin-3-yl)acetamido)acetamide] — 1.6-fold higher, 129 nM
- C[C@H]1CC[C@H]([C@H](NC(=O)c2nonc2C2CC2)C(=O)Nc2cc(CN3C[C@@H](C(F)(F)F)NC3=O)c(F)cn2)CC1 [Example 61, 4-cyclopropyl-N-((S)-2-((5-fluoro-4-(((S)-2-oxo-4-(trifluoromethyl)imidazolidin-1-yl)methyl)pyridin-2-yl)amino)-1-((1r,4S)-4-methylcyclohexyl)-2-oxo-ethyl)-1,2,5-oxadiazole-3-carboxamide] — 7.5-fold higher, 612 nM
- COCC(c1ccnc(NC(=O)[C@@H](NC(=O)c2nccn2C)[C@H]2CC[C@H](C)CC2)c1)N1C[C@@H](C(F)(F)F)NC1=O (single isomer, unassigned) [Example 112] — 4.6-fold higher, 381 nM
- CC(c1ccnc(NC(=O)[C@@H](NC(=O)c2ccnn2C)C2CCC(F)(F)CC2)c1)N1C[C@@H](C(F)(F)F)NC1=O (single isomer, unassigned) [Example 171, N-((1S)-1-(4,4-difluorocyclohexyl)-2-oxo-2-((4-((R or S)-1-((S)-2-oxo-4-(trifluoromethyl)imidazolidin-1-yl)ethyl)pyridin-2-yl)amino)ethyl)-1-methyl-1H-pyrazole-5-carboxamide] — within 1.5-fold, 67 nM
- COCC(NC(=O)CCC(F)(F)F)c1ccnc(NC(=O)[C@@H](NC(=O)c2ccnn2C(C)C)C2CCC(F)(F)CC2)c1 (single isomer, unassigned) [Example 137] — 2.4-fold higher, 197 nM
- CCC(c1ccnc(NC(=O)C(NC(=O)c2ccnn2CC)C2CCC(C)CC2)c1)N1CC(C(F)(F)F)NC1=O [Example 258, 1-ethyl-N-((S)-1-((1r,4S)-4-methylcyclohexyl)-2-oxo-2-((4-((R)-1-((S)-2-oxo-4-(trifluoromethyl)imidazolidin-1-yl)propyl)pyridin-2-yl)amino)ethyl)-1H-pyrazole-5-carboxamide] — 9.1-fold lower, 9 nM
- CCc1conc1C(=O)N[C@H](C(=O)Nc1cc([C@@H](COC)N2C[C@@H](C(F)(F)F)NC2=O)ccn1)[C@H]1CCCC(F)(F)C1 (single isomer, unassigned) [Example 305] — 2.8-fold lower, 29 nM
